For one test, the system named is mixed-stage C. elegans. As to the kind of experiment: C. elegans chemotaxis assay (non-target). The settings on record: worms soaked in 100 μM uNLP 24 h, counted after 1 h, 8 replicates. The class given is in vivo, Caenorhabditis elegans. As for the experimental part:
C. elegans wild-type N2 Bristol strain were obtained from the C. elegans Genomics Center and maintained on a Escherichia coli (strain OP50) lawn on nematode growth medium (NGM) agar plates (3 g/l NaCl, 17 g/l agar, 2.5 g/l peptone, 5 mg/l cholesterol, 25 mM KH2PO4 (pH 6.0), 1 mM CaCl2, 1 mM MgSO4) at 20°C [70]. Chemotaxis assays were performed in a 9 cm diameter Petri dish on NGM agar which was split into a positive and negative side with a central ‘dead zone’ of 1.5 cm diameter. 100 mixed-staged C. elegans were washed three times in M9 buffer and soaked in 100 μM PPN uNLP, or M9 vehicle control for 24 hours. 2 μl of 50 mM sodium acetate, 0.5% pyrazine, 0.5% benzaldehyde or 0.5% diacetyl was spotted onto the positive side, 2 μl of ddH20 was spotted onto the negative side. Pyrazine, benzaldehyde and diacetyl volatile attractants were assayed immediately whereas the water soluble sodium acetate was assayed 18 hours following addition to the plate. Assays were maintained in the dark at 20°C, and counted after 1 hour. Eight replicates were conducted for each C. elegans attraction assay.

Test [1] deals with M. incognita J2s. In words: Tomato invasion assay with uNLP pre-treated J2s. The test is classed as in vivo, Meloidogyne incognita. As for the experimental part:
(§1) Predicted uNLPs from both M. incognita and G. pallida were synthesised by EZBiolab and dissolved into pH adjusted ddH2O to make a 5 mM stock which was aliquoted and stored at -20°C. J2s of both M. incognita and G. pallida were incubated for 24 hours in 200 μl of each peptide in a 24 well plate (SPL Lifesciences, South Korea) at a defined concentration.
(§2) Tomato seeds were sterilised with 2.5% NaOCl for 15 minutes, washed 5 times in ddH20 and germinated on 0.5% Murashige and Skoog plates at 23°C. […] Invasion assays were performed by mixing 500 pre-treated M. incognita or G. pallida J2s with agar slurry and a single tomato seedling (2 days post germination) in a 6 well plate. Assays were left at 23°C for 24 hours in the case of M. incognita and at 18°C for 24 hours in the case of G. pallida under a 16 hour light and 8 hour darkness cycle. Seedlings were stained using acid fuschin [69] and the number of nematodes within the roots counted. At least five seedlings were used for M. incognita infections assays, with at least 15 seedlings used for G. pallida infections assays (due to increased variation).

In test [2] the test system is M. incognita J2s. As to the kind of experiment: Chemosensory (chemotaxis) assay of uNLP pre-treated J2s towards tomato root exudate. The test is classed as in vivo, Meloidogyne incognita. The settings on record: for CI score: Fig 1A, J2s incubated in 100 μM uNLP for 24 h, tomato cv. Moneymaker root exudate vs water agar plugs, counted after 3 h, mean of 10 replicates of 100 J2s, control 0.4426. As for the experimental part:
as §1
(§3) A 60 mm Petri dish was divided into two segments, a positive and a negative side, with a 0.5 cm 'dead zone' either side of the centre point. The petri dish was filled with 15 ml of 0.25% w/v agar which was allowed to solidify. 3 ml of 0.25% w/v agar slurry in spring water (pH 7, agitated with a magnetic stirrer for several hours to give a smooth consistency) was added to the petri dish and spread evenly over the surface. Root diffusate (attractant) and water only (control) 0.25% agar plugs were embedded in the agar slurry, either side of the assay arena. Root diffusate was collected from 10 tomato plants, aged 3–6 weeks in 1 litre pots, by pouring 500 ml of ddH20 through the soil three times. Diffusate from each plant was combined, filter sterilised and stored at 4°C for a maximum of 1 month. Root diffusate agar plugs were made by melting 1.25% agar in ddH20, cooling to 50°C before mixing with 4 parts of root diffusate. The agar was then allowed to solidify at room temperature. 100 uNLP pre-treated M. incognita or G. pallida J2s were added by pipette to the centre of the plate. J2s which moved out of the 'dead zone' after 3 hours were counted and their location (+/-) scored. The distribution of J2s were used to create a chemotaxis index for each plate, which formed one replicate, a total of 10 replicates where completed for each uNLP treatment.

Test [3] deals with M. incognita J2s. In words: Plant protection assay, C. reinhardtii secreting uNLPs. The test is classed as in vivo, Meloidogyne incognita. The settings on record: Fig 4A; peptide secreted by transgenic C. reinhardtii culture in tomato invasion arena with 500 J2s; relative to untransformed C. reinhardtii = 100%; mean. As for the experimental part:
as §2
(§4) B. subtilis were grown overnight in LB media containing ampicillin (100 μg/ml) at 37°C with shaking, and harvested in the log phase of growth determined by measuring OD600nm. Five ml of culture at 0.5 OD was spun down and the pellet mixed with 3 ml of agar slurry and 500 J2s from either G. pallida or M. incognita. C. reinhardtii clones were grown at 23°C with shaking, cultures in the log phase were measured at OD750 and 5 ml of culture at 0.5 OD was pelleted by centrifugation. C. reinhardtii pellets were mixed with 3 ml of agar slurry and 500 J2s from either G. pallida or M. incognita. Plant invasion assays were performed as described above. […]

In test [4] the test system is S. carpocapsae infective juveniles (IJs). In words: S. carpocapsae host-finding assay (non-target). The class given is in vivo, Steinernema carpocapsae. The settings on record: Fig 5E; chemotaxis towards insect host Galleria mellonella; 100 IJs incubated 24 h in 100 μM uNLP; n = 5; control 0.2315. The protocol: S. carpocapsae were cultured in Galleria mellonella at 23°C. Infective juveniles (IJs) were collected using a White trap in PBS. Freshly emerged IJs were used for each assay. 100 IJs were incubated for 24 hours in 100 μM of selected uNLPs, and host-finding assays (n = 5) performed as in Morris et al..

Test [5] has as its system M. incognita J2s. As to the kind of experiment: Plant protection assay, B. subtilis secreting uNLPs. The class given is in vivo, Meloidogyne incognita. The settings on record: Fig 4B; peptide secreted by transgenic B. subtilis culture in tomato invasion arena with 500 J2s; control = 100%; mean. The protocol:
as §2, §4

For test [6], the system named is M. incognita J2s. In words: Serotonin-induced stylet thrusting assay. The conditions noted are these: Fig 1C; J2s incubated in 100 μM uNLP for 24 h; stylet thrusts in 5 mM serotonin, counted 1 min; normalised to control = 100%; mean, at least 30 J2s. The test is classed as in vivo, Meloidogyne incognita. The protocol:
as §1
(§5) Stylet thrusting assays where performed by incubating 100 M. incognita or G. pallida J2s for 15 minute in 5 mM or 2 mM serotonin (Sigma Aldrich, USA), respectively. J2s were placed on a glass slide and stylet thrusts were counted for randomly selected J2s, for 1 minute each. Counts for a given cohort of J2s were taken in a maximum interval of 15 minutes. Longer counting intervals, making for longer serotonin incubations, yielded inconsistent results. At least 30 J2s were counted for each neuropeptide treatment.

Test [7] has as its system G. pallida J2s. As to the kind of experiment: Tomato invasion assay with uNLP pre-treated J2s. The class given is in vivo, Globodera pallida. The conditions noted are these: Fig 2B; 500 J2s incubated in 100 μM uNLP for 24 h; single tomato seedling, 24 h at 18°C; normalised to negative control = 100%; mean. The protocol: as §1, §2
Test [8] concerns G. pallida J2s. In words: Chemosensory (chemotaxis) assay of uNLP pre-treated J2s towards tomato root exudate. The test is classed as in vivo, Globodera pallida. The settings on record: for CI score: Fig 2A, J2s incubated in 100 μM uNLP for 24 h, tomato cv. Moneymaker root exudate vs water agar plugs, counted after 3 h, mean of 10 replicates of 100 J2s, control 0.4154. The protocol:
as §1, §3

For test [9], the system named is G. pallida J2s. In words: Serotonin-induced stylet thrusting assay. The class given is in vivo, Globodera pallida. As for the experimental part:
as §1, §5

Where [10] appears, read: Fig 5A, attractant sodium acetate (50 mM), control 0.4269.
The mark [11] stands for this setting: Fig 5B, attractant pyrazine (0.5%), control 0.4904.
Where [12] appears, read: Fig 5C, attractant benzaldehyde (0.5%), control 0.7026.
Setting [13] is: Fig 5D, attractant diacetyl (0.5%), control 0.6638.
Where [14] appears, read: 100 μM uNLP, 24 h, relative to controls.

Entries after “also recorded” stand apart in the source; their conditions may differ.

On to “GGGRYFIRPFADQ [Mi-NLP-9f, predicted unamidated NLP of M. incognita, synthesised; also secreted from transgenic C. reinhardtii]”, for which the CI score is reported as 0.5261 in the test on mixed-stage C. elegans (setting [10]); 0.4599 with mixed-stage C. elegans (setting [11]); 0.7463 with mixed-stage C. elegans (setting [12]); 0.6 with mixed-stage C. elegans (setting [13]); -0.26 in the test on M. incognita J2s [2]; 0.2462 in test [4]. For the same substance, the “effect on host invasion (in words)” value in the test with M. incognita J2s [1] (100 μM uNLP, 24 h, tomato cv. Moneymaker, relative to controls) is given as “inhibited”. In addition, the “% Invasion” value in the test with M. incognita J2s [1] (Fig 1B, 500 J2s incubated in 100 μM uNLP for 24 h, single tomato seedling, 24 h at 23°C, normalised to negative control = 100%, mean) turned out to be 28.22%; in the test on M. incognita J2s [3], 10.32%. In the test with M. incognita J2s [2] (setting [14]), the “effect on chemosensation (in words)” value was “inhibit chemosensation; also recorded: inhibited”.
As to “MVSWQPV [Mi-NLP-40, predicted unamidated NLP of M. incognita, synthesised; also secreted from transgenic B. subtilis]”, the CI score is on record as 0.482 with mixed-stage C. elegans (setting [10]); 0.5018 in the test on mixed-stage C. elegans (setting [11]); 0.6686 with mixed-stage C. elegans (setting [12]); 0.5858 in the test with mixed-stage C. elegans (setting [13]); -0.04 in the test on M. incognita J2s [2]; 0.3057 in test [4]. Also, the “% Invasion” value in the test on M. incognita J2s [5] is on record as 23.72%. For the same substance, in the test with M. incognita J2s [6], the “% Thrusting” value turned out to be 210%.
For “GGARAFNFFAPDE [Gp-NLP-21b, predicted unamidated NLP of G. pallida, synthesised]”, the “% Invasion” value in the test on G. pallida J2s [7] amounted to 6.90%. The CI score in the test on G. pallida J2s [8] is listed as -0.117.
Consider “SGIQTFRDDYDEKQAGEL [Gp-NLP-21d, predicted unamidated NLP of G. pallida, synthesised]”, for which the “% Invasion” value in the test with G. pallida J2s [7] turned out to be 2.01%.
The same measure, in the same setting: the value for “GGARAFNFFAPPDE [Gp-NLP-21a, predicted unamidated NLP of G. pallida, synthesised]” was 178.90%.
As to “AGGRYFMRHFDDSPFAGWMA [Gp-NLP-21g, predicted unamidated NLP of G. pallida, synthesised]”, the “% Invasion” value with G. pallida J2s [7] is listed as 214.80%. For the same substance, the CI score in the test with G. pallida J2s [8] is listed as -0.01357.
As to “GGTRAFNFFVSDALPSSYE [Gp-NLP-21c, predicted unamidated NLP of G. pallida, synthesised]”, the “% Invasion” value in the test on G. pallida J2s [7] amounted to 14.07%.
Regarding “SFDSFTGSGFTGLD [Gp-NLP-15c, predicted unamidated NLP of G. pallida, synthesised]”, in the test on G. pallida J2s [9] (100 μM uNLP, 24 h, 2 mM serotonin, relative to controls), the “effect on serotonergic-induced stylet thrusting (in words)” value is listed as “modulating stylet thrusting rates”. The “% Thrusting” value in the test on G. pallida J2s [9] (Fig 2C, J2s incubated in 100 μM uNLP for 24 h, stylet thrusts in 2 mM serotonin, counted 1 min, normalised to control = 100%, mean, at least 30 J2s) was 56.07%. Further, in the test on G. pallida J2s [8] (setting [14]), the “effect on chemosensation (in words)” value is recorded as “inhibit chemosensation”. Further, the CI score with G. pallida J2s [8] is listed as -0.227.

Values taken from article PMC5344539, “Nematode neuropeptides as transgenic nematicides” (PLoS Pathogens, 2017).
